Reference: the supplement of paper PMC8882468
± gives the standard deviation of the averaged measurements.

test system: HCI-017.E2 (organoid from an ER-positive breast cancer xenograft); assay: CTG-3D luminescence at 96 h relative to day-0 seeding control (ratio to day 0); higher = more growth / less cytotoxicity; PDxO 3D drug screen, 96 h, CTG-3D normalised to day-0 seeding control.; settings: 100 µM

| SMILES | CTG-3D luminescence at 96 h |
| --- | --- |
| COc1cc2c(Oc3ccc4[nH]c(C)cc4c3F)ncnc2cc1OCCCN1CCCC1 [cediranib] | 0.00813 ± 0.002 |
| CC(C)n1nc(-c2ccc3oc(N)nc3c2)c2c(N)ncnc21 [sapanisertib] | 0.126 ± 0.06 |
| Cc1cc(Nc2ncnc3ccc(NC4=NC(C)(C)CO4)cc23)ccc1Oc1ccn2ncnc2c1 [tucatinib] | 0.0205 ± 0.00032 |
| C[C@H](NC(=O)CCC(F)(F)F)C(=O)N[C@@H]1C(=O)N(CCO)c2ncccc2-c2ccccc21 [crenigacestat] | 1.78 ± 0.23 |
| C[C@]12CC[C@@H]3c4ccc(O)cc4C[C@@H](CCCCCCCCC[S+]([O-])CCCC(F)(F)C(F)(F)F)[C@H]3[C@@H]1CC[C@@H]2O (stereo partly specified) [fulvestrant] | 1.55 ± 0.072 |
| O=C(c1ccc(F)c(F)c1Nc1ccc(I)cc1F)N1CC(O)([C@@H]2CCCCN2)C1 [cobimetinib] | 0.00898 ± 0.0081 |
| O=C(/C=C/c1cccnc1)NCCCCC1CCN(C(=O)c2ccccc2)CC1 [FK866] | 0.328 ± 0.036 |
| CS(=O)(=O)c1ccc(C(=O)Nc2ccc(Cl)c(-c3ccccn3)c2)c(Cl)c1 [vismodegib] | 0.824 ± 0.086 |
| C=CCn1c(=O)c2cnc(Nc3ccc(N4CCN(C)CC4)cc3)nc2n1-c1cccc(C(C)(C)O)n1 [adavosertib] | 1.51 ± 0.054 |

same assay, conditions: 100 µM; days in culture: 85

| SMILES | CTG-3D luminescence at 96 h |
| --- | --- |
| COc1cc2c(Oc3ccc4[nH]c(C)cc4c3F)ncnc2cc1OCCCN1CCCC1 [cediranib] | 0.00763 |
| CC(C)n1nc(-c2ccc3oc(N)nc3c2)c2c(N)ncnc21 [sapanisertib] | 0.141 |
| Cc1cc(Nc2ncnc3ccc(NC4=NC(C)(C)CO4)cc23)ccc1Oc1ccn2ncnc2c1 [tucatinib] | 0.109 |
| C[C@H](NC(=O)CCC(F)(F)F)C(=O)N[C@@H]1C(=O)N(CCO)c2ncccc2-c2ccccc21 [crenigacestat] | 2.02 |
| C[C@]12CC[C@@H]3c4ccc(O)cc4C[C@@H](CCCCCCCCC[S+]([O-])CCCC(F)(F)C(F)(F)F)[C@H]3[C@@H]1CC[C@@H]2O (stereo partly specified) [fulvestrant] | 1.89 |
| O=C(c1ccc(F)c(F)c1Nc1ccc(I)cc1F)N1CC(O)([C@@H]2CCCCN2)C1 [cobimetinib] | 0.017 |
| O=C(/C=C/c1cccnc1)NCCCCC1CCN(C(=O)c2ccccc2)CC1 [FK866] | 0.391 |
| CS(=O)(=O)c1ccc(C(=O)Nc2ccc(Cl)c(-c3ccccn3)c2)c(Cl)c1 [vismodegib] | 0.842 |
| C=CCn1c(=O)c2cnc(Nc3ccc(N4CCN(C)CC4)cc3)nc2n1-c1cccc(C(C)(C)O)n1 [adavosertib] | 1.58 |

same assay, conditions: 625 fM

| SMILES | CTG-3D luminescence at 96 h |
| --- | --- |
| COc1cc2c(Oc3ccc4[nH]c(C)cc4c3F)ncnc2cc1OCCCN1CCCC1 [cediranib] | 2.35 ± 0.29 |
| CC(C)n1nc(-c2ccc3oc(N)nc3c2)c2c(N)ncnc21 [sapanisertib] | 2.02 ± 0.26 |
| Cc1cc(Nc2ncnc3ccc(NC4=NC(C)(C)CO4)cc23)ccc1Oc1ccn2ncnc2c1 [tucatinib] | 1.96 ± 0.23 |
| C[C@H](NC(=O)CCC(F)(F)F)C(=O)N[C@@H]1C(=O)N(CCO)c2ncccc2-c2ccccc21 [crenigacestat] | 2.32 ± 0.025 |
| C[C@]12CC[C@@H]3c4ccc(O)cc4C[C@@H](CCCCCCCCC[S+]([O-])CCCC(F)(F)C(F)(F)F)[C@H]3[C@@H]1CC[C@@H]2O (stereo partly specified) [fulvestrant] | 1.88 ± 0.47 |
| O=C(c1ccc(F)c(F)c1Nc1ccc(I)cc1F)N1CC(O)([C@@H]2CCCCN2)C1 [cobimetinib] | 2.01 ± 0.47 |
| O=C(/C=C/c1cccnc1)NCCCCC1CCN(C(=O)c2ccccc2)CC1 [FK866] | 1.39 ± 1.2 |
| CS(=O)(=O)c1ccc(C(=O)Nc2ccc(Cl)c(-c3ccccn3)c2)c(Cl)c1 [vismodegib] | 1.88 ± 0.089 |
| C=CCn1c(=O)c2cnc(Nc3ccc(N4CCN(C)CC4)cc3)nc2n1-c1cccc(C(C)(C)O)n1 [adavosertib] | 2.15 ± 0.3 |

same assay, conditions: 625 fM; days in culture: 85

| SMILES | CTG-3D luminescence at 96 h |
| --- | --- |
| COc1cc2c(Oc3ccc4[nH]c(C)cc4c3F)ncnc2cc1OCCCN1CCCC1 [cediranib] | 2.35 |
| CC(C)n1nc(-c2ccc3oc(N)nc3c2)c2c(N)ncnc21 [sapanisertib] | 2.59 |
| Cc1cc(Nc2ncnc3ccc(NC4=NC(C)(C)CO4)cc23)ccc1Oc1ccn2ncnc2c1 [tucatinib] | 2.31 |
| C[C@H](NC(=O)CCC(F)(F)F)C(=O)N[C@@H]1C(=O)N(CCO)c2ncccc2-c2ccccc21 [crenigacestat] | 3.08 |
| C[C@]12CC[C@@H]3c4ccc(O)cc4C[C@@H](CCCCCCCCC[S+]([O-])CCCC(F)(F)C(F)(F)F)[C@H]3[C@@H]1CC[C@@H]2O (stereo partly specified) [fulvestrant] | 2.52 |
| O=C(c1ccc(F)c(F)c1Nc1ccc(I)cc1F)N1CC(O)([C@@H]2CCCCN2)C1 [cobimetinib] | 2.45 |
| O=C(/C=C/c1cccnc1)NCCCCC1CCN(C(=O)c2ccccc2)CC1 [FK866] | 2.15 |
| CS(=O)(=O)c1ccc(C(=O)Nc2ccc(Cl)c(-c3ccccn3)c2)c(Cl)c1 [vismodegib] | 2.14 |
| C=CCn1c(=O)c2cnc(Nc3ccc(N4CCN(C)CC4)cc3)nc2n1-c1cccc(C(C)(C)O)n1 [adavosertib] | 2.77 |
